Test results taken from US9371319B2, “Pyrrolopyridineamino derivatives as MPS1 inhibitors” (priority 2011, dated 2016).

Target: T1, full length MPS1 (Homo sapiens, UniProt P33981)
T1 sequence (P33981 1-857): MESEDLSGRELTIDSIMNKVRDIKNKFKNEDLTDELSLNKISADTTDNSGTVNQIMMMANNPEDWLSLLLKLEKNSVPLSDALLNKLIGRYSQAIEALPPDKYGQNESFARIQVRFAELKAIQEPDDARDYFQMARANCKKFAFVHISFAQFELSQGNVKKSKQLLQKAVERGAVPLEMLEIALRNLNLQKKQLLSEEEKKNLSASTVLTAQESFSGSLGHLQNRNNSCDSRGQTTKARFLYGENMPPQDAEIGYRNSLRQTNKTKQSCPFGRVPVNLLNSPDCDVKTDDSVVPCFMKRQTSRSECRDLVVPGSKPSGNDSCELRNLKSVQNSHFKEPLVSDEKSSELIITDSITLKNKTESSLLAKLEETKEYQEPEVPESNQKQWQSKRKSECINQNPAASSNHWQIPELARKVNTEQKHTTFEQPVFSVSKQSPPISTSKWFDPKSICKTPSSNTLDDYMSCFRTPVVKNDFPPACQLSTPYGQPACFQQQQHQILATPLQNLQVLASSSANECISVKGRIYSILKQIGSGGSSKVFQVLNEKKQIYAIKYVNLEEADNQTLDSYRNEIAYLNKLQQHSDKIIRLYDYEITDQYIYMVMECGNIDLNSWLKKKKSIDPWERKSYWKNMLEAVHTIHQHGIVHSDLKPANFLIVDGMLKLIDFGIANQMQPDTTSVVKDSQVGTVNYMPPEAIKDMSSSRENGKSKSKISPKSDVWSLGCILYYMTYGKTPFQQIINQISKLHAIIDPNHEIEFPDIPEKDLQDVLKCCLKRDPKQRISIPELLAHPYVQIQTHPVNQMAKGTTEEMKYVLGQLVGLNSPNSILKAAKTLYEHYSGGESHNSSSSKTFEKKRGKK
Assay: biochemical
Experimental: Measurement of Inhibition of MPS1 Kinase
(5 μM), ATP (10 μM), either DMSO (1% v/v) or the test compound (in the range 0.25 nM-100 μM in 1% DMSO) and assay buffer (50 mM HEPES (pH 7.0), 0.02% NaN3, 0.01% BSA, 0.1 mM Orthovandate, […], 1 μM DTT, Roche protease inhibitor). The reaction was carried out for 60 min at room temperature and stopped by the addition of buffer (10 μl) containing 20 mM EDTA, 0.05% (v/v) Brij-35, in 0.1M HEPES-buffered saline (Free acid, Sigma, UK). The plate was read on a Caliper EZ reader II (Caliper Life Sciences).
The % inhibition of the compounds is calculated relative to the means of selected control wells. […] The % inhibitions at each concentration are then fitted to a 4 parameter logistic fit: y=(a+((b−a)/(1+((c/x^d)))) where a=asym min, b=asym max, c=IC50 and d=hill coefficient

IC50	SMILES
53 nM	CN(C)C(=O)c1ccc(Nc2cc3c(cn2)c(Cl)c(-c2cnn(C)c2)n3CC2CC2)c(Cl)c1 [Example 192, 3-Chloro-4-(3-chloro-1-(cyclopropylmethyl)-2-(1-methyl-1H-pyrazol-4-yl)-1H-pyrrolo[3,2-c]pyridin-6-ylamino)-N,N-dimethylbenzamide]
5 nM	Cc1ncn(C)c1-c1ccc(Nc2cc3c(cn2)cc(-c2cnn(C)c2)n3C(=O)OC(C)(C)C)c(Cl)c1 [Example 63]
127 nM	CN(C)C(=O)c1ccc(Nc2cc3c(cn2)c(Cl)c(-c2cnn(C)c2)n3C(=O)OC(C)(C)C)c(Cl)c1 [Example 65]
5 nM	CN(C)C(=O)c1ccc(Nc2cc3[nH]c(-c4cnco4)cc3cn2)c(Cl)c1 [Example 180, 3-Chloro-N,N-dimethyl-4-(2-(oxazol-5-yl)-1H-pyrrolo[3,2-c]pyridin-6-ylamino)benzamide]
10 nM	COC1CN(C(=O)c2ccc(Nc3cc4[nH]c(-c5cnn(C)c5)cc4cn3)c(Cl)c2)C1 [Example 142, (3-Chloro-4-(2-(1-methyl-1H-pyrazol-4-yl)-1H-pyrrolo[3,2-c]pyridin-6-ylamino)phenyl)(3-methoxyazetidin-1-yl)methanone]
537 nM	Cn1cc(-c2ccc(Cl)c(Nc3cc4c(cn3)cc(-c3cnn(C)c3)n4C(=O)OC(C)(C)C)c2)cn1 [Example 62]
10 nM	COc1cc(CN2CCS(=O)(=O)CC2)ccc1Nc1cc2[nH]c(-c3cnn(C)c3)cc2cn1 [Example 116, N-(2-Methoxy-4-(thiomorpholinomethyl)phenyl)-2-(1-methyl-1H-pyrazol-4-yl)-1H-pyrrolo[3,2-c]pyridin-6-amine-S,S-dioxide]
78 nM	CN(C)C(=O)c1ccc(Nc2cc3c(cn2)cc(-c2cnn(C)c2)n3-c2ccccn2)c(Cl)c1 [Example 94]
7 nM	COc1cc(-c2cnn(C)c2)ccc1Nc1cc2c(cn1)cc(-c1cnn(C)c1)n2C(=O)OC(C)C [Example 102]
3 nM	CN(C)C(=O)c1ccc(Nc2cc3c(cn2)cc(-c2cnn(C)c2)n3C(=O)OC2CCCC2)c(Cl)c1 [Example 72]
4 nM	Cc1ncc(-c2ccc(Nc3cc4c(cn3)cc(-c3cnn(C)c3)n4C(=O)OC3CCC3)c(Cl)c2)n1C [Example 85]
38 nM	CN(C)C(=O)c1ccc(Nc2cc3c(cn2)cc(-c2cnn(C)c2)n3Cc2ccc(F)cc2)c(Cl)c1 [Example 70]
7 nM	COC(=O)n1c(-c2cnn(C)c2)cc2cnc(Nc3ccc(-c4cnc(C)n4C)cc3Cl)cc21 [Example 86]
2 nM	CCOC(=O)n1c(-c2cnn(C)c2)cc2cnc(Nc3ccc(-c4cnc(C)n4C)cc3Cl)cc21 [Example 87]
164 nM	COc1cc(C(F)(F)F)ccc1Nc1cc2[nH]c(-c3cnn(C)c3)cc2cn1 [Example 156, N-(2-Methoxy-4-(trifluoromethyl)phenyl)-2-(1-methyl-1H-pyrazol-4-yl)-1H-pyrrolo[3,2-c]pyridin-6-amine]
21 nM	Cn1cc(-c2cc3cnc(Nc4ccc(C(=O)N5CC(F)(F)C5)cc4Cl)cc3[nH]2)cn1 [Example 153, (3-Chloro-4-((2-(1-methyl-1H-pyrazol-4-yl)-1H-pyrrolo[3,2-c]pyridin-6-yl)amino)phenyl)(3,3-difluoroazetidin-1-yl)methanone]
7 nM	COc1cc(C(=O)N2CC(OC)C2)ccc1Nc1cc2c(cn1)cc(-c1cnn(C)c1)n2C(=O)OC(C)(C)C [Example 12]
12 nM	COc1cc(C(=O)N2CCOCC2)ccc1Nc1cc2[nH]c(-c3cnn(C)c3)cc2cn1 [Example 118, (3-Methoxy-4-(2-(1-methyl-1H-pyrazol-4-yl)-1H-pyrrolo[3,2-c]pyridin-6-ylamino)phenyl)(morpholino)methanone]
11 nM	Cc1oncc1-c1ccc(Nc2cc3c(cn2)cc(-c2cnn(C)c2)n3C(=O)OC(C)(C)C)c(Cl)c1 [Example 23]
2 nM	Cc1ncc(-c2ccc(Nc3cc4c(cn3)cc(-c3cnn(C)c3)n4C(=O)OC(C)C)c(Cl)c2)n1C [Example 83]

IC50	SMILES
6 nM	CN(C)C(=O)c1ccc(Nc2cc3c(cn2)cc(-c2cnn(C)c2)n3C(=O)OC(C)(C)C)c(OC(F)(F)F)c1 [Example 3]
2 nM	COc1cc(-c2cnc(C)n2C)ccc1Nc1cc2c(cn1)cc(-c1cnn(C)c1)n2C(=O)OC(C)C [Example 68]
3 nM	CN(C)C(=O)c1ccc(Nc2cc3c(cn2)cc(-c2cnn(C)c2)n3C(=O)OC2CCC2)c(Cl)c1 [Example 81]
19 nM	COCCNC(=O)c1ccc(Nc2cc3[nH]c(-c4cnn(C)c4)cc3cn2)c(OC)c1 [Example 119, 3-Methoxy-N-(2-methoxyethyl)-4-(2-(1-methyl-1H-pyrazol-4-yl)-1H-pyrrolo[3,2-c]pyridin-6-ylamino)benzamide]
254 nM	COc1ccccc1Nc1cc2c(cn1)cc(-c1cnco1)n2C(=O)OC(C)(C)C [Example 96]
512 nM	FC(F)(F)c1ccccc1Nc1cc2[nH]c(-c3cn[nH]c3)cc2cn1 [Example 164, 2-(1H-Pyrazol-4-yl)-N-(2-(trifluoromethyl)phenyl)-1H-pyrrolo[3,2-c]pyridin-6-amine]
114 nM	Cc1nc(C)c(-c2ccc(Nc3cc4[nH]c(-c5cnn(C)c5)cc4cn3)c(Cl)c2)s1 [Example 150, N-(2-Chloro-4-(2,4-dimethylthiazol-5-yl)phenyl)-2-(1-methyl-1H-pyrazol-4-yl)-1H-pyrrolo[3,2-c]pyridin-6-amine]
9 nM	COCCOc1ccc(Nc2cc3[nH]c(-c4cn[nH]c4)cc3cn2)cc1 [Example 170, N-(4-(2-Methoxyethoxy)phenyl)-2-(1H-pyrazol-4-yl)-1H-pyrrolo[3,2-c]pyridin-6-amine]
97 nM	CN(C)C(=O)c1ccc(Nc2cc3c(cn2)c(Cl)c(-c2cnn(C)c2)n3CC2CCCC2)c(Cl)c1 [Example 191, 3-Chloro-4-(3-chloro-1-(cyclopentylmethyl)-2-(1-methyl-1H-pyrazol-4-yl)-1H-pyrrolo[3,2-c]pyridin-6-ylamino)-N,N-dimethylbenzamide]
3 nM	COc1cc(C(=O)N2CC(OC)C2)ccc1Nc1cc2[nH]c(-c3cnco3)cc2cn1 [Example 179, (3-Methoxy-4-(2-(oxazol-5-yl)-1H-pyrrolo[3,2-c]pyridin-6-ylamino)phenyl)(3-methoxyazetidin-1-yl)methanone]
12 nM	Cn1cc(-c2cc3cnc(Nc4ccc(C(=O)N5CCCC5)cc4Cl)cc3[nH]2)cn1 [Example 145, (3-Chloro-4-(2-(1-methyl-1H-pyrazol-4-yl)-1H-pyrrolo[3,2-c]pyridin-6-ylamino)phenyl)(pyrrolidin-1-yl)methanone]
6 nM	Cn1cc(-c2cc3cnc(Nc4ccc(C(=O)N5CC(F)(F)C5)cc4Cl)cc3n2C(=O)OC(C)(C)C)cn1 [Example 50]
2 nM	CCCOC(=O)n1c(-c2cnn(C)c2)cc2cnc(Nc3ccc(-c4cnc(C)n4C)cc3Cl)cc21 [Example 88]
1 nM	Cc1ncc(-c2ccc(Nc3cc4[nH]c(-c5cnco5)cc4cn3)c(Cl)c2)n1C [Example 186, N-(2-Chloro-4-(1,2-dimethyl-1H-imidazol-5-yl)phenyl)-2-(oxazol-5-yl)-1H-pyrrolo[3,2-c]pyridin-6-amine]
24 nM	Cn1cc(-c2cc3cnc(Nc4ccc(S(C)(=O)=O)cc4Cl)cc3n2C(=O)OC(C)(C)C)cn1 [Example 55]
207 nM	COc1ccc(Nc2cc3[nH]c(-c4cnn(Cc5cc(C)on5)c4)cc3cn2)c(OC)c1 [Example 173, N-(2,4-Dimethoxyphenyl)-2-(1-((5-methylisoxazol-3-yl)methyl)-1H-pyrazol-4-yl)-1H-pyrrolo[3,2-c]pyridin-6-amine]
50 nM	CC(C)n1c(-c2cnn(C)c2)cc2cnc(Nc3ccc(C(=O)N(C)C)cc3Cl)cc21 [Example 74]
7 nM	CN(C)C(=O)c1ccc(Nc2cc3c(cn2)cc(-c2cnn(C)c2)n3C2CCCC2)c(Cl)c1 [Example 73]
18 nM	Cn1cc(-c2cc3cnc(Nc4ccc(N5CCCC5=O)cc4Cl)cc3[nH]2)cn1 [Example 136, 1-(3-chloro-4-((2-(1-methyl-1H-pyrazol-4-yl)-1H-pyrrolo[3,2-c]pyridin-6-yl)amino)phenyl)pyrrolidin-2-one]
30 nM	CN(C)C(=O)c1ccc(Nc2cc3c(cn2)cc(-c2cnn(C)c2)n3CC2CC2)c(Cl)c1 [Example 66]
